Patent US8114589B2, “Self-addressable self-assembling microelectronic integrated systems, component devices, mechanisms, methods, and procedures for molecular biological analysis and diagnostics” (Gamida For Life B.V., priority 1996, dated 2012)
Like-named read-outs stand apart in the source and are kept apart here. {Amino} = amino group added with ABI Aminolink 2 reagent, used to attach Texas Red

Key:
Ras-G = assay: Ras-12 single point mutation hybridization with 15-mer probes; type: binding
Description: In the Ras-12 example, 15-mer point mutation specific probes were electronically hybridized to 30-mer target sequences attached to the microlocations on test devices. The polarity at the microlocations was biased negative, and the hybrids were subjected to constant current for a given time, providing a defined power level which denatures the mis-match without affecting the perfect match.
Test devices were fabricated from microcapillary tubes as described previously in the specification. Attachment sequences Ras-G and Ras-T were periodate oxidized and covalently bound to the addressed microlocations.
Ras-G microlocation were then hybridized with Ras-1, Ras-2 or Ras-3. Ras-1 is the perfect match to Ras-G. Ras-2 is a one base pair mismatch (G-A). Ras-3 is a two base pair mismatch (G-A and G-T). The G-A mis-match produces the least destabilization to the DNA duplex, and is therefore the most difficult to distinquish from the perfect match.
Conventional hybridization was first carried out and the microlocations were examined fluorescently to measure to what extent complementary sequences were hybridized. The test devices (microcapillaries) were re-mounted and electronic hybridization was then carried out. […] The procedure and results are shown below: […]

ET-10AL capture sequence = assay: Electronically controlled fluorescent DNA/dye (ethidium bromide) detection; type: binding; conditions: peak ethidium bromide fluorescence after positive bias 0.05 mA, 0.03 Volt-Hours; capture ET-10AL
Description: Microcapillary test devices were prepared and hybridized as described in Example 2 and 3. Ethidium bromide (EB) was added to the buffer solution (˜0.05 mM EB final concentration) and the test devices were biased negative to concentrate EB (positively charged) at both the hybridized and un-hybridized microlocations. The test devices were observed by epifluorescece microscopy at 550 nm excitation and 600 nm emission.
The test devices were re-mounted biased positive
constant current at 0.05 mA for 0.03 Volt-Hours, to selectively remove the EB. Fluorescence at the un-hybridized microlocations diminished while the hybridized microlocations retained a very high level of EB fluorescence. The results are given below:
Fluorescent signal was measured using an ICCD imaging

[1] = Conductivity measurements of transport buffers; type: physicochemical; conditions: for Average/Std. Deviation / Measurement 1 / Measurement 2 / Measurement 3: conductivity
[2] = tested on: btr-RCA5 fluorescent DNA probe; assay: Fluorescent DNA checkerboard addressing; conditions: bias reversed every 6 seconds, 80 micron microlocations
[3] = Buffer conductivity and pH measurements; type: physicochemical; set-up: conductivity: unit not given here; conditions: for conductivity: RT; for pH: in water at room temperature
Description: Buffer Conductivity and pH Measurements—The conductivities of test buffer solutions utilized for transport and hybridization were measured at RT using an Accumet 1.0 cm^−1 glass conductivity cell connected to an Accumet Model 50 pH/Ion/Conductivity meter (Fisher Scientific). Buffer pH values were obtained using an Accu-pHast variable temperature combination electrode and the same model meter.

[4] = cited from earlier work; for pK1 / pK2 / pK3: Table 2
[5] = tested on: btrRCA5 to ATA5 capture oligonucleotide; assay: Accumulation and electronic hybridization in test buffers; conditions: for support of sequence specific electronic hybridization: in words
Description: Microelectronic Chips, Permeation Layer and Instrumentation—These have been described previously with the following exception. The permeation layer employed herein has an underlayer of agarose beneath the top streptavidin-containing agarose layer (approximately one micron in total thickness). To make the underlayer, […] glyoxal agarose (2%) was spun on at 2000 rpms for 20 sec prior to the application of the streptavidin-agarose layer. In brief, the 5580 series APEX chip used for these experiments consists of a 5×5 array of […] circular microelectrodes with […] microelectrodes at each corner of the array. Chips were mounted on a micromanipulator stage and the microelectrodes activated by a power supply and appropriately controlled relay switches. Fluorescently labeled oligonucleotides on the chip were visualized using oblique illumination with two 594 nm HeNe lasers and the images were quantified using either NIH Image or IPLab Spectrum software packages.
Accumulation and Hybridization—Two biotinylated capture oligonucleotides, ATA5 and ATA4 were electronically transported and localized at adjacent microelectrodes. The solution was removed and the chip washed 3-4× in test buffer. Buffers employed in these studies are listed in Table 3 and were utilized at the listed pH values and concentrations presented.
The L-isomers of amino acids were used, unless otherwise noted. The chip was equilibrated in test buffer for 5-10 min. Then fresh buffer containing 10 nM BODIPY-Texas Red labeled RCA5 (btrRCA5), an oligonucleotide complementary to ATA5 but not ATA4 (RS paper) was applied.
The […] microelectrodes were employed as cathodes and one microelectrode within the array used as the corresponding anode. Accumulation was assessed by sourcing a 500 nA constant current to individual microelectrodes for 30 sec and monitoring the accumulation of fluorescence at the positively-biased (anode) site in the microelectrode array. Signal arising from non-fluorescent sources (ie. thermal noise, etc.) was subtracted. Experiments examining the effect of different currents upon signal accumulation were conducted in a similar fashion except that the applied current varied from 100 nA to 1 mA. […] For the comparison between conductivities of various buffers, the data is presented as fold increase over initial fluorescence to account for chip-to-chip variation as well as laser illumination variations in signal levels. For other experiments, the data is presented as attomol product versus time, after converting^2 the observed fluorescence intensity to moles of labeled oligonucleotide.
Following accumulation at one microelectrode location, the buffer was removed and fresh buffer containing btrRCA5 applied. An adjacent microelectrode was then sourced in a similar fashion. Upon completion, the buffer was removed and the chip washed 5-7× with test buffer without btrRCA5. The pair of previously targeted microelectrodes were then illuminated and the fluorescence present at each site quantified. Control experiments utilized a bodipy-Texas Red labeled oligonucleotide complementary to ATA4 to verify the integrity and concentration of the ATA4 capture oligonucleotide. Percent hybridization efficiency was calculated as follows: (complementary oligonucleotide signal−noncomplementary signal)/(signal present immediately prior to the end of the applied current)×100.

DNA = DNA transport (accumulation) on the APEX chip; conditions: in words, same field conditions
[6] = Buffer capacity, pH and conductivity of buffers used on the APEX chip; conditions: for PH: NaPO4: 20 mM adjusted to pH 7.4
[7] = tested on: target DNA to the specific capture DNA; assay: DNA hybridization sensitivity on the APEX chip; conditions: normal DNA
[8] = tested on: Reporter DNA to DNA1 or PNA1 capture; assay: Hybridization of phosphodiester-linked oligonucleotides versus PNA analogues; conditions: 200 nA versus 500 nA
btrRCA5 to ATA5 [9] = assay: Passive hybridization versus electric field hybridization; conditions: 50 mM
Description: Passive Hybridization versus Electric Field Hybridization—ATA5 was electrically targeted to the first four columns of the microarray on streptavidin/agarose coated chips prepared as above, and ATA4 was targeted to the remaining column. For passive hybridization, either 5.0 nM or 0.5 nM btrRCA5 in 5×SSC (1×=0.15 M NaCl, 15 mM sodium citrate, pH 7.0) was applied for 1 min, then the chips were washed 6× in buffer and imaged. For the 3 min timepoint, fresh buffer containing btrRCA5 was applied and incubated for an additional 2 min to achieve 3 min cumulative incubation time. This approach was repeated for the remaining time points. […] Five sites, 4 with ATA5 previously attached and 1 with ATA4, were electronically targeted using 3.1 V total, (approximately 500 nA/site). […] In both passive and electric field mediated hybridization, the background signal present at the ATA4 sites was subtracted from the signal present at ATA5 sites.

[10] = for pH above the surface of the permeation layer: not told
[11] = biological target: streptavidin/biotin DNA probe (Streptomyces avidinii, UniProt P22629); assay: Streptavidin/biotin DNA probe capture affinity on the APEX chip; type: binding
Sequence of streptavidin/biotin DNA probe (P22629 25-183, species assumed): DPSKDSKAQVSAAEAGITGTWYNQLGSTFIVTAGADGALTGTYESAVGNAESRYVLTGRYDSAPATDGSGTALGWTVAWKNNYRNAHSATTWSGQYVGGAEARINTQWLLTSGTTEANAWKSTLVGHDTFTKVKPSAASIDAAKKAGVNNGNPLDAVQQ

btrRCA5 to ATA5 [12] = assay: Passive hybridization at different pHs
Description: Passive Hybridization at Different pHs—Biotinylated ATA5 and ATA4 were electronically targeted to adjacent sites upon streptavidin/agarose coated microarrays. […] A parallel hybridization was done in 6×SSC. After this hybridization period, the chips were washed in 0.2×STE, 0.1% sodium dodecyl sulfate, as above and the remaining fluorescence at each site quantitated. Fluorescence values present at ATA4 sites were subtracted from adjacent ATA5 sites and the remaining fluorescence converted to attomol btrRCA5 specifically hybridized. Additional experiments repeated this methodology and also examined buffer adjusted with concentrated acetic acid (at the pI and at pH 6 and 5).

For “3′-CC-GCG-GCC-GCC-ACA-C-5′-(TR) (DNA CCGCGGCCGCCACAC; TR label, further chemistry not given here; listed 3' to 5') [Ras-1]”, the “signal ratio of perfect match (Ras-G/Ras-1) to 1 bp mis-match (Ras-G/Ras-2)” value (Ras-G; conventional hybridization, 5×SSC 15 minutes 40° C., washes) was “about 10 to 1” and the “signal ratio of perfect match (Ras-G/Ras-1) to 1 bp mis-match (Ras-G/Ras-2)” value (Ras-G; electronic stringency control, 0.15 mA at 150 V for 4 minutes, 20° C.) was greater than 100 to 1.
For “5′-Amino-CCT GCT CAT GAG TCT CTC (DNA CCTGCTCATGAGTCTCTC; DNA, 5' {Amino}, backbone not given here; further chemistry not fully specified) [ET-11AL]”, the “Normalized Signal” value (ET-10AL capture sequence) was greater than 200.
For “5′-Amino-TGCGAGCTGCAGTCAGACAT (DNA TGCGAGCTGCAGTCAGACAT; DNA, 5' {Amino}, backbone not given here; further chemistry not fully specified) [ET-21A]”, the “Normalized Signal” value (ET-10AL capture sequence) was 1.
With O=S(=O)(O)CCN1CCN(CCO)CC1 [250 mM HEPES, HEPES] the “Average/Std. Deviation” value [1] was 147.6 +/− 9.07 μS/cm, the “Measurement 1” value [1] was 141 μS/cm and the “Measurement 2” value [1] was 144 μS/cm. The “Measurement 3” value [1] was 158 μS/cm, the “Average/Std. Deviation” value ([1]; listed as 25 mM HEPES) was 9.7 +/− 0.71 μS/cm and the “Measurement 1” value ([1]; listed as 25 mM HEPES) was 9.16 μS/cm. The “Measurement 2” value ([1]; listed as 25 mM HEPES) was 9.44 μS/cm, the “Measurement 3” value ([1]; listed as 25 mM HEPES) was 10.5 μS/cm and the “checkerboard addressing and concentration of fluorescent DNA probe” value [2] was “Rapid (6 second) checkerboard addressing and concentration of the btr-RCA5 fluorescent DNA probe was demonstrated”.
In the case of N[C@@H](CS)C(=O)O [Cysteine], the conductivity ([3]; 50 mM) is reported as 9.0 +/− 0.9, the pH ([3]; 50 mM) is reported as 5.08 and the conductivity ([3]; 250 mM) is reported as 21.8 +/− 4.4. The pK1 [4] was “pK1 - 1.7”, the pK2 [4] was “pK2 - 8.3” and the pK3 [4] was “pK3 - 10.8”. The pl ([4]; Table 3) was 5.02, the pI [4] was 5.02 and the conductivity [1] was roughly 23 μS/cm. The “Average/Std. Deviation” value [1] was 22.7 +/− 5.09 μS/cm, the “Measurement 1” value [1] was 27.4 μS/cm and the “Measurement 2” value [1] was 17.3 μS/cm. The “Measurement 3” value [1] was 23.5 μS/cm, the “support of sequence specific electronic hybridization” value [5] was “difficult to evaluate because of poor signal accumulation” and the transport (DNA) was “excellent transport”. For the same compound, the conductivity [6] was 25.0 μS, the PH [6] was 5.2 and the “Hybridization Sensitivity of DNA” value [7] was 7.5×10^10 targets.
In the case of N[C@@H](Cc1c[nH]cn1)C(=O)O [Histidine], the “DNA:DNA hybridization” value [8] is given as “only occurs well at 500 nA”, the “PNA:DNA hybridization” value [8] is given as “occurs at roughly equal efficiencies at either current” and the pK1 [4] is given as “pK1 - 1.8”. The pK2 [4] was “pK2 - 6.0”, the pK3 [4] was “pK3 - 9.0” and the pI [4] was 7.47. The “hybridization in the absence of an applied electric field” value (btrRCA5 to ATA5 [9]) was “No hybridization was observed”, the “support of sequence specific electronic hybridization” value [5] was “demonstrated specific hybridization” and the transport (DNA) was “good transport”. The conductivity [6] was 212.0 μS, the PH [6] was 7.6 and the conductivity ([6]; hi purity) was 172.0 μS. The “pH of the solution” value ([10]; 200 nA) was greater than 6, the “pH of the solution” value ([10]; 500 nA) was greater than 5 and the “pH above the surface of the permeation layer” value [10] was greater than 5. For the same compound, the “Hybridization Sensitivity of DNA” value [7] was 3×10^6 targets, the “SA-Biotin T12 Sensitivity” value [11] was 3 × 10^6 and the passive hybridization (btrRCA5 to ATA5 [12]; at its pI (pH 7.5), 50 mM) was “does not facilitate hybridization”. For the same compound, the passive hybridization (btrRCA5 to ATA5 [12]; pH 6.0 and 5.0, 50 mM) was “accelerated hybridization”.
For NCCCC[C@H](N)C(=O)O [Lysine], the pK1 [4] is listed as “pK1 - 2.2”, the pK2 [4] is listed as “pK2 - 8.9” and the pK3 [4] is listed as “pK3 - 10.3”. The pI [4] was 9.74, the transport (DNA) was “fair transport” and the conductivity [6] was 477.0 μS. The PH [6] was 9.6 and the “SA-Biotin T12 Sensitivity” value [11] was >7.5 × 10^10.
With c1c[nH]cn1 [imidazole] the conductivity ([3]; 50 mM) was 17.6 +/− 1.6, the pH ([3]; 50 mM) was 9.08 and the hybridization efficiency ([5]; [(specific hybridization)/(transported)] × 100) was 4.0. The transported ([5]; fluorescent signal at completion of electronic targeting, value +/− SEM, 50 mM buffer) was 528 +/− 63, the specific hybridization ([5]; value +/− SEM, 50 mM buffer) was 21.2 +/− 6.6 attomol and the “pH above the surface of the permeation layer” value [10] was greater than 5.
